We go through three compounds from patent EP0206322B1, “N-(2-carboxy)-ethyl-1,8-naphthalene imide and its salts for the treatment of diabetic retinopathies and neuropathies” (I.P.A. INTERNATIONAL PHARMACEUTICAL ASSOCIATED S.r.l., priority 1985, dated 1986).

Where two headings read alike, the source gives them in different places.

A short description of data set [1]: Acute toxicity in the mouse (LD50 by Litchfield and Wilcoxon method). The format is in vivo. Particulars: oral and intravenous administration, at the tested doses. The procedure:
The acute toxicity of IPA 955 has been studied in the mouse after oral and intravenous administration. The LD₅₀ values were calculated according to the Litchfield and Wilcoxon method (J. Pharm. Exp. Therap. 1949, 96, 99).

Data set [2] relates to platelets of rabbit blood. The experiment in a line: In vitro platelet antiaggregant activity, ADP-induced aggregation. The data set is classed as cell-based. The procedure: (§1) The platelet antiaggregant activity of IPA 955 has been determined in comparison with a known antiaggregant activity, Ticlopidine, on the platelets of rabbit blood added with 3.6% sodium citrate in an amount of 10%. The blood was centrifuged for 15' at 1200 rpm and the surnatant was recovered for its platelet content. The residue has been further centrifuged with the aim of obtaining a "poor" plasma (3000 - 3500 rpm). The plasma platelets obtained after the first centrifugation were suitably diluted with the poor plasma, counted and the rich plasma (first centrifugation) was diluted according to the platelet count so as to obtain a final concentration of platelets of 25.10⁴ ÷ 30.10⁴/mm³.
(§2) The aggregation was induced by the addition of ADP and collagene at the specified concentrations.

In data set [3] the target is T1, aldose-reductase (Rattus norvegicus, UniProt P07943).
T1 construct: The surnatant, after centrifugation at 3000 x g for 15 minutes, has been used; from tissue; host or cells: crystalline lenses of adult male rats (homogenate supernatant)
In words: Aldose-reductase inhibitory activity (rat lens homogenate supernatant, method of Varma and Kinoshita). The data set is classed as biochemical, rats. The procedure:
Crystallin lenses of adult male rats have been homogenized in 0.1 M phosphate buffer pH 6.2. The surnatant, after centrifugation at 3000 x g for 15 minutes, has been used. The surnatant contained 13 mg/ml of proteins. Quercitrin (Fluka, Buchs) 1 mM dissolved in DMSO: H2O (1:10) has been used. The aldose-reductase activity has been tested by the method described by […] J.H. Kinoshita (Biochem. Pharmacol. 25, 2505, 1976) using 1 ml of final volume containing NAPDH (20 μl of a 10 mM solution), DL glyceraldheide 1.5 x 10^-3 M final, […] (25 μl of a 1 M solution) and 150 μl of a surnatant. The blank contained the same substances, except the surnatant.

The subject of data set [4] is platelets of rabbit blood. The experiment in a line: In vitro platelet antiaggregant activity, collagen-induced aggregation. The data set is classed as cell-based. The note with it: for inhibition at 625 µM / inhibition at 1250 µM: Oryctolagus cuniculus, Platelet, read-out: Percent inhibition; for inhibition at 625 µM: compound 0.625 mM; for inhibition at 1250 µM: compound 1.25 mM. The procedure:
as §1, §2

Where [5] appears, read: ADP conc. 5.0 μM, compound 1.25 mM.
Where [6] appears, read: ADP conc. 6.25 μM, compound 0.625 mM.
Setting [7] is: ADP conc. 6.25 μM, compound 1.25 mM.
Where [8] appears, read: ADP conc. 8.3 μM, compound 1.25 mM.
Where [9] appears, read: ADP conc. 12.5 μM, compound 0.625 mM.
Where [10] appears, read: ADP conc. 12.5 μM, compound 1.25 mM.

As to `O=C(O)CCN1C(=O)c2cccc3cccc(c23)C1=O` [IPA 955, N-(2-carboxy)-ethyl-1,8-naphthaleneimide], the acute toxicity entry in data set [1] is “practically devoid of toxicity”. For the same compound, the Percent inhibition in data set [2] (setting [5]) came to 14.6%; in data set [2] (setting [6]), 8.4%; in data set [2] (setting [7]), 25.66%; in data set [2] (setting [8]), 16.3%; in data set [2] (setting [9]), 23.17%; in data set [2] (setting [10]), 16.85%. Besides, in data set [2] (ADP-induced aggregation, summary over the tables), the “Percent inhibition” value is on record as “about 20%”. Further, the “activity relative to quercitrin (times higher)” value in data set [3] (ratio of Ki values against quercitrin) is “about 6 times”. For the same compound, in data set [3] (supernatant of rat lens homogenate, DL glyceraldheide 1.5 x 10⁻³ M, NADPH, read-out: Ki), the Ki came out at 1.04 µM. The inhibition at 625 µM in data set [4] (collagene 25 μg/ml) is 41%. For the same compound, the figures for the inhibition at 1250 µM in data set [4] (collagene 25 μg/ml) and in data set [4] (collagene 50 μg/ml) were 48.8% and 38.7%, respectively. In data set [4] (collagen induced aggregation, summary over the tables), the “platelet antiaggregation activity (percent inhibition)” value was 40 to 50%.

As to `Clc1ccccc1CN1CCc2sccc2C1` [TICLOPIDINE, Ticlopidine, reference compound], the Percent inhibition in data set [2] (setting [5]) was determined as 24.4%; in data set [2] (setting [6]), 9.7%; in data set [2] (setting [7]), 20.5%; in data set [2] (setting [8]), 19.75%; in data set [2] (setting [9]) it was 15.66%; in data set [2] (setting [10]), 20.02%. Also, the inhibition at 625 µM in data set [4] (collagene 25 μg/ml) turned out to be 45.3%. The inhibition at 1250 µM in data set [4] (collagene 25 μg/ml) stood at 66.5%; in data set [4] (collagene 50 μg/ml), 59.6%.

Consider `C[C@@H]1O[C@@H](Oc2c(-c3ccc(O)c(O)c3)oc3cc(O)cc(O)c3c2=O)[C@H](O)[C@H](O)[C@H]1O` [quercitrin, reference compound], for which, in data set [3], the Ki worked out at 6 µM.

What is called Ki is a dissociation constant, usually derived from enzyme kinetics or from competition with a known ligand. What is called inhibition is the drop in the measured response relative to a control, in per cent.
